Results: ChEMBL document CHEMBL1149209, “Synthesis and structure-activity relationship of 2-(aminoalkyl)-3,3a,8,12b-tetrahydro-2H-dibenzocyclohepta[1,2-b]furan derivatives: a novel series of 5-HT(2A/2C) receptor antagonists” (Bioorg Med Chem Lett, 2004)

Assays:
[1] = target: 5-hydroxytryptamine receptor 2A (Homo sapiens, UniProt P28223); test: Ability to displace [125I]R91150 from human cloned 5-hydroxytryptamine 2A receptor expressed in L929 cells; type: cell-based
[2] = target: T1, 5-hydroxytryptamine receptor 2C (Homo sapiens, UniProt P28335); test: Ability to displace [3H]- mesulergine from human cloned 5-hydroxytryptamine 2C receptor expressed in CHO cells; type: cell-based
T1 sequence (P28335 whole entry): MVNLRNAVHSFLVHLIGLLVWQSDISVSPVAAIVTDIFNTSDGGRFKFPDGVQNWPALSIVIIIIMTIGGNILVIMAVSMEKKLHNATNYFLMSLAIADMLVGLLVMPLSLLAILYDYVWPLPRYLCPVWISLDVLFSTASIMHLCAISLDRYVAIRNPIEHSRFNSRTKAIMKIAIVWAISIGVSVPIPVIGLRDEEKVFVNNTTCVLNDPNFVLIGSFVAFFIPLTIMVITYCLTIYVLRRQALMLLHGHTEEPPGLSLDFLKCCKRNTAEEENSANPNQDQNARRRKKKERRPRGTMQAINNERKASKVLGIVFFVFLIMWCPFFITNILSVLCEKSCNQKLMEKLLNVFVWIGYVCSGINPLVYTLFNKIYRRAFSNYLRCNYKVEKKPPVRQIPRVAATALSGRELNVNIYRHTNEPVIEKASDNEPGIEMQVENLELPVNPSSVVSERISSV

Histamine H1 receptor = Histamine H1 receptor (Homo sapiens, UniProt P35367); test: Ability to displace [3H]pyrilamine from human cloned histamine H1 receptor expressed in CHO cells; type: cell-based
Sequence of Histamine H1 receptor (P35367 whole entry): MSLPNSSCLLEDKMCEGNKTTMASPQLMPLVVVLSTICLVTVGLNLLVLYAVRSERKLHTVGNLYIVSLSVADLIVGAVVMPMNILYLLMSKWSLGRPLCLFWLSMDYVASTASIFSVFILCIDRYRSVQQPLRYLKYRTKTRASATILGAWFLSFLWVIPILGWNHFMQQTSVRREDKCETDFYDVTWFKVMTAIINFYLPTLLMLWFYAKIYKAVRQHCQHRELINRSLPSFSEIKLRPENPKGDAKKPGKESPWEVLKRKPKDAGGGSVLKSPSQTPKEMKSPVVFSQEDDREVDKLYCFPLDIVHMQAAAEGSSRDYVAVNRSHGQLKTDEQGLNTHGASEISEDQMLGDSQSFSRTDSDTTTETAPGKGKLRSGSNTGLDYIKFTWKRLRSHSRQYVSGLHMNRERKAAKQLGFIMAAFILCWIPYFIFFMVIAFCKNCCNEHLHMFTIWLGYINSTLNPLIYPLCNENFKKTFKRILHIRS

Rattus norvegicus = test: Effective dose required for antagonistic activity in mCPP challenge test in male wistar rats after subcutaneous administration; type: functional; conditions: sc

Sequence of 5-hydroxytryptamine receptor 2A (P28223 whole entry): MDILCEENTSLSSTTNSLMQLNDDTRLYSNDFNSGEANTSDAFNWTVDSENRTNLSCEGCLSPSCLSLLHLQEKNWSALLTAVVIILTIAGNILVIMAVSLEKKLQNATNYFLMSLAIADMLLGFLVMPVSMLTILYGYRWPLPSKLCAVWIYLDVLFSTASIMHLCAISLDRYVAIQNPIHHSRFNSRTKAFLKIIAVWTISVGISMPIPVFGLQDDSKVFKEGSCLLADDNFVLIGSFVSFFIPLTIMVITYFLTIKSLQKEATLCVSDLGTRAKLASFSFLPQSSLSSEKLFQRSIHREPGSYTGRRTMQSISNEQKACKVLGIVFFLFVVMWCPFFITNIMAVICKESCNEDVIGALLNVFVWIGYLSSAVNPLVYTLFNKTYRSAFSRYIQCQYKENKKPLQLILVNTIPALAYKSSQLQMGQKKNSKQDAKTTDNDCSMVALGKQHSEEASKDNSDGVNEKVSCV

Compound | Ki [1] | Ki [2] | Ki (Histamine H1 receptor) | ED50 (Rattus norvegicus)
c1ccc(C2CCN(CC3C[C@@H]4c5ccccc5Sc5ccccc5[C@H]4O3)CC2)cc1 (stereo partly specified) | 0.0687 µM | 0.239 µM | 0.0471 µM | 
CN1CCN(CC2C[C@@H]3c4ccccc4Sc4ccccc4[C@H]3O2)CC1 (stereo partly specified) | 0.0173 µM | 0.12 µM | 0.0012 µM | 
CN(C)C[C@@H]1C[C@H]2c3ccccc3Cc3ccccc3[C@@H]2O1 | 0.104 µM | 0.028 µM | 0.00374 µM | 1.26 mg/kg
CN(C)CC1C[C@@H]2c3ccccc3COc3ccccc3[C@H]2O1 (stereo partly specified) | 1.06 µM | 0.123 µM | 0.0206 µM | 
CN(C)CC1C[C@@H]2c3ccccc3N(C)c3ccccc3[C@H]2O1 (stereo partly specified) | 0.0807 µM | 0.0129 µM | 0.006 µM | 
CN(C)C[C@@H]1C[C@@H]2c3ccccc3Cc3ccccc3[C@H]2O1 | 0.0196 µM | 0.00325 µM | 0.00063 µM | 0.06 mg/kg
CN(C)C[C@H]1C[C@@H]2c3ccccc3Cc3ccccc3[C@H]2O1 | 0.0025 µM | 0.00093 µM | 0.00054 µM | 0.04 mg/kg
OCCN1CCN(CC2C[C@@H]3c4ccccc4Cc4ccccc4[C@H]3O2)CC1 (stereo partly specified) | 0.0865 µM | 0.17 µM | 0.0037 µM | 
CN(C)CC1C[C@@H]2c3ccccc3Cc3ccccc3[C@H]2O1 (stereo partly specified) | 0.0217 µM | 0.0067 µM | 0.0007 µM | 
CN(C)CC1C[C@@H]2c3ccccc3OCc3ccccc3[C@H]2O1 (stereo partly specified) | 0.0905 µM | 0.0325 µM | 0.0096 µM | 
c1ccc2c(c1)Cc1ccccc1[C@H]1OC(CN3CCOCC3)C[C@H]21 (stereo partly specified) | 0.433 µM | 0.027 µM | 0.00236 µM | 
c1ccc(C2CCN(CC3C[C@@H]4c5ccccc5Cc5ccccc5[C@H]4O3)CC2)cc1 (stereo partly specified) | 1.09 µM | 0.0427 µM | 0.0297 µM | 

Further compounds by falling Ki [1], results first:

Ki [1] | Ki [2] | Ki (Histamine H1 receptor) | Compound | ED50 (Rattus norvegicus)
0.433 µM | 0.677 µM | 0.003 µM | CN1CCN(CC2C[C@@H]3c4ccccc4Cc4ccccc4[C@H]3O2)CC1 (stereo partly specified) | 
0.433 µM | 0.017 µM | 0.0019 µM | O=C(c1ccc(F)cc1)C1CCN(CC2C[C@@H]3c4ccccc4Cc4ccccc4[C@H]3O2)CC1 (stereo partly specified) | 
0.102 µM | 0.166 µM | 0.027 µM | CN(C)CC1C[C@H]2c3ccccc3Cc3ccccc3[C@H]2O1 (stereo partly specified) | 
0.0926 µM | 0.183 µM | 0.0326 µM | CN(C)CC1C[C@H]2c3ccccc3Oc3ccccc3[C@H]2O1 (stereo partly specified) | 
0.0741 µM | 0.0159 µM | 0.0035 µM | CNC[C@@H]1CC2c3ccccc3Cc3ccccc3C2O1 (single isomer, unassigned) | 2.2 mg/kg
0.056 µM | 0.107 µM | 0.471 µM | Clc1cccc(N2CCN(CC3C[C@@H]4c5ccccc5Cc5ccccc5[C@H]4O3)CC2)c1 (stereo partly specified) | 
0.0486 µM | 0.0097 µM | 0.0093 µM | CNCC1C[C@@H]2c3ccccc3Cc3ccccc3[C@H]2O1 (stereo partly specified) | 
0.037 µM | 0.031 µM | 0.014 µM | CN(C)CC1C[C@@H]2c3ccccc3Oc3ccccc3[C@H]2O1 (stereo partly specified) | 
0.0307 µM | 0.0247 µM | 0.0043 µM | CN(C)CC1C[C@@H]2c3ccccc3Sc3ccccc3[C@H]2O1 (stereo partly specified) | 
0.0025 µM | 0.001 µM | 0.00064 µM | CN(C)C[C@@H]1C[C@@H]2c3ccccc3Cc3ccccc3N2O1 | 0.04 mg/kg
